# Columns and labels:
# PC3 cells = assay: MTT cell viability assay, PC3; format: cell-based
# Description: Inhibition of EMT in CRPC could lead to a new form of therapeutics to aid once androgen-independence is achieved. However, in order for MC-1-F2 to be considered an effective chemotherapeutic agent, its EC50 in prostate cancer needed to be determined as well as how it compares to other chemotherapeutic agents on the market and whether it is able to inhibit chemoresistance or lower the sensitivity of CRPC to commercially available drugs. In order to determine the EC50 of MC-1-F2, an MTT assay on cell viability was performed in both DU145 and PC3. […] These doses are higher than those encountered with breast cancer cell lines. This is most likely due to the lower FOXC2 expression levels founds in prostate cell lines when compared to the breast cell lines.
# (§1) Cell viability was assessed by MTT (3-(4,5-Dimethylthiazol-2-yl)-2,5-Diphenyltetrazolium Bromide) assay 5,000 cells were seeded on a 96-well cell culture plate and were incubated for at least 24 hours prior to drug treatment. The MTT reagent (Fisher Scientific) was added to the culture medium 3 hours prior to the end of compound incubation. The reaction took place in the 37° C. incubator with 5% CO2 for 3 hours. Cell culture medium was then removed from the wells. Cells with the insoluble purple formazan were lysed with DMSO for 10 mins at room temperature, 200 μL per well. Absorbance was read at 570 nm using a plate reader.
# DU145 cells = assay: MTT cell viability assay, DU145; format: cell-based; conditions: single agent
# Experimental: In order to determine the EC50 of MC-1-F2, an MTT assay on cell viability was performed in both DU145 and PC3.
# as §1
"EC50 (PC3 cells; Homo sapiens, PC-3, single agent) [nM]",Structure (SMILES),effect on cell viability (PC3 cells; single agent),effect on cell viability (DU145 cells)
–,"CNC(=O)c1ccc(N2C(=S)N(c3ccc(C#N)c(C(F)(F)F)c3)C(=O)C2(C)C)cc1F [Enzalutamide, reference compound]",no effect,no effect
7.6,CC(=O)O[C@@]12CO[C@@H]1C[C@H](O)[C@@]1(C)C(=O)[C@H](O)C3=C(C)[C@@H](OC(=O)[C@H](O)[C@@H](NC(=O)OC(C)(C)C)c4ccccc4)C[C@@](O)([C@@H](OC(=O)c4ccccc4)[C@H]21)C3(C)C [docetaxel],–,–

# From US10814010B2, “FOXC2 inhibitor and methods of use thereof” (The Board of Regents of The University of Texas System, priority 2018, dated 2020)
